From publication PMC8313270 (Microbial Biotechnology, 2021)

Tested on: StdA-His
Assay: toxoflavin degradation assay, Lineweaver-Burk plot
Format: biochemical, Sphingomonas adhaesiva
Conditions: 50 mM sodium phosphate pH 8.0, 5 mM DTT, 28°C, no metal added

`Cn1ncnc2c(=O)n(C)c(=O)nc1-2` [toxoflavin, 1,6‐dimethylpyrimido[5,4‐e]‐1,2,4‐triazine‐5,7(1H,6H) dione] showed a Km of 65 µM.
